In ChEMBL document CHEMBL4619786, “Discovery of Novel Resorcinol Dibenzyl Ethers Targeting the Programmed Cell Death-1/Programmed Cell Death-Ligand 1 Interaction as Potential Anticancer Agents” (J Med Chem, 2020):

Legend:
[1] = target: T1, Programmed cell death protein 1/Programmed cell death 1 ligand 1 (Homo sapiens, UniProt Q9NZQ7); assay: Inhibition of human PD1/PDL1 protein-protein interaction by HTRF assay; type: protein-complex assay
[2] = target: T1, Programmed cell death protein 1/Programmed cell death 1 ligand 1; assay: Inhibition of human C-terminal Ig-Fc-tagged PD1 (Leu25 to Gln167 residues) expressed in HEK293 cells/human C-terminal epitope-His-tagged PDL1 (Phe19 to Arg238 residues) expressed in HEK293 cells protein-protein interaction preincubated for 15 mins with PDL1 followed by PD1 addition and measured after 15 mins by APC-labeled anti-His antibody/Eu-labeled anti-human IgG based HTRF assay; type: cell-based
[3] = Clearance in Sprague-Dawley rat at 1 mg/kg, iv by LC-MS/MS analysis; type: ADME, organism-based; conditions: in vivo
[4] = Volume of distribution at steady state in Sprague-Dawley rat at 1 mg/kg, iv by LC-MS/MS analysis; type: ADME, organism-based; conditions: in vivo, read-out: Vdss
[5] = Clearance in Sprague-Dawley rat at 10 mg/kg, po by LC-MS/MS analysis; type: ADME, organism-based; conditions: in vivo
[6] = Volume of distribution at steady state in Sprague-Dawley rat at 10 mg/kg, po by LC-MS/MS analysis; type: ADME, organism-based; conditions: in vivo
[7] = tested on: A549; assay: Cytotoxicity against human A549 cells assessed as reduction in cell viability measured after 48 hrs by MTT assay; type: functional, cell-based; conditions: A549, 48 h
[8] = tested on: MCF7; assay: Cytotoxicity against human MCF7 cells assessed as reduction in cell viability measured after 48 hrs by MTT assay; type: functional, cell-based; conditions: MCF7, 48 h
[9] = tested on: B16-F10; assay: Cytotoxicity against mouse B16/F10 cells assessed as reduction in cell viability measured after 48 hrs by MTT assay; type: functional, cell-based; conditions: B16-F10, 48 h
[10] = tested on: B16-F10; assay: Antitumor activity against mouse B16/F10 cells implanted in BALB/c mouse assessed as tumor growth inhibition at 25 mg/kg, ig administered once daily via gavage for 15 days relative to control; type: functional; conditions: B16-F10, po, 360 h, read-out: TGI
[11] = Toxicity in […] cells xenografted BALB/c mouse assessed as decrease in body weight at 25 mg/kg, ip administered once daily for 14 days measured daily during compound dosing; type: organism-based; conditions: in vivo, 336 h
[12] = target: Programmed cell death protein 1/Programmed cell death 1 ligand 1 (Mus musculus, UniProt Q9EP73); assay: Inhibition of mouse biotin-labelled C-terminal Fc-fused/Avi-tagged PD1/Fc-fused PDL1 expressed in HEK293 cells protein-protein interaction measured after 2 hrs by ELISA; type: cell-based
Sequence of Programmed cell death protein 1/Programmed cell death 1 ligand 1 (Mus musculus, UniProt Q9EP73) (Q9EP73 whole entry, the tested form may be a part): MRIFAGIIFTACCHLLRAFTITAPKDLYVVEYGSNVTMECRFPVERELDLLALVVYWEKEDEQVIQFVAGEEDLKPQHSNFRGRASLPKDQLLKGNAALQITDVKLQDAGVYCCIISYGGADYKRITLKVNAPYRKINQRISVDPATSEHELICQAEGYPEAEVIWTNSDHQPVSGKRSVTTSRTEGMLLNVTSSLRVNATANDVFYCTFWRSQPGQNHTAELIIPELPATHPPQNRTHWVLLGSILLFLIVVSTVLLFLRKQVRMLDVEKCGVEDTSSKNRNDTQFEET
Sequence of Programmed cell death protein 1/Programmed cell death 1 ligand 1 (Mus musculus, UniProt Q9EP73) (Q02242 whole entry, further chain, the tested form may be a part): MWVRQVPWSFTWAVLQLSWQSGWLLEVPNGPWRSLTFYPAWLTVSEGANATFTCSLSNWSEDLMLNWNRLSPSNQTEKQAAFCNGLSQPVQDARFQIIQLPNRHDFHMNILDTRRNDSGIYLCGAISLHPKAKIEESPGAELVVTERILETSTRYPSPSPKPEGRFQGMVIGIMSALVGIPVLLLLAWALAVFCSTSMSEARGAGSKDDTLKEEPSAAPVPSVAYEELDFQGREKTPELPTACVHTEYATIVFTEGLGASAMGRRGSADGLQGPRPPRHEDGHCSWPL

[13] = tested on: Mus musculus; assay: (§1) Immunostimulatory activity in mouse B16/F10 cells implanted […] mouse assessed as increase in activation of tumor-microenvironment mediated helper T cells in tumor by measuring CD4-positive cell population at 100 mg/kg, ig administered once daily via gavage for 15 days measured 24 hrs post-last dose by immunostaining based flow cytometry (reference value: 4.95%); type: functional
[14] = tested on: Mus musculus; assay: as §1, with “CD3-positive” for “CD4-positive”, “18.9%)” for “4.95%)”; type: functional
[15] = tested on: Mus musculus; assay: as §1, with “activated cytotoxic” for “helper”, “CD8-positive” for “CD4-positive”, “2.2%)” for “4.95%)”; type: functional
[16] = tested on: Mus musculus; assay: as §1, with “50” for “100”; type: functional
[17] = tested on: Mus musculus; assay: as §1, with “melanoma” for “CD4-positive”, “50” for “100”, “70%)” for “4.95%)”; type: functional
[18] = tested on: Mus musculus; assay: as §1, with “activated cytotoxic” for “helper”, “CD3-positive/CD8-positive” for “CD4-positive”, “50” for “100”, “4.18%)” for “4.95%)”; type: functional
[19] = tested on: Mus musculus; assay: as §1, with “activated cytotoxic” for “helper”, “melanoma” for “CD4-positive”, “50” for “100”, “72.8%)” for “4.95%)”; type: functional
[20] = tested on: Mus musculus; assay: as §1, with “activated cytotoxic” for “helper”, “CD3-positive” for “CD4-positive”, “50” for “100”, “20.8%)” for “4.95%)”; type: functional
[21] = tested on: Mus musculus; assay: as §1, with “CD3-positive” for “CD4-positive”, “25” for “100”, “18.9%)” for “4.95%)”; type: functional
[22] = tested on: Mus musculus; assay: Effect on spleen helper T cell population in mouse B16/F10 cells implanted […] mouse assessed as CD4-positive cell population at 100 mg/kg, ig administered once daily via gavage for 15 days measured 24 hrs post-last dose by immunostaining based flow cytometry (reference value: 1.47 %); type: ADME, organism-based; conditions: in vivo, po
[23] = tested on: Mus musculus; assay: (§2) Effect on activated cytotoxic T cell population in mouse B16/F10 cells implanted […] mouse assessed as CD8-positive cell population in spleen at 100 mg/kg, ig administered once daily via gavage for 15 days measured 24 hrs post-last dose by immunostaining based flow cytometry (reference value: 0.383 %); type: organism-based; conditions: in vivo, po
[24] = tested on: Mus musculus; assay: Effect on activated cytotoxic T cell population in mouse B16/F10 cells implanted […] mouse assessed as spleen cell population at 100 mg/kg, ig administered once daily via gavage for 15 days measured 24 hrs post-last dose by immunostaining based flow cytometry (reference value: 57.9 %); type: organism-based; conditions: in vivo, po
[25] = tested on: Mus musculus; assay: Effect on spleen helper T cell population in mouse B16/F10 cells implanted […] mouse assessed as CD3-positive/CD4-positive cell population at 50 mg/kg, ig administered once daily via gavage for 15 days measured 24 hrs post-last dose by immunostaining based flow cytometry (reference value: 27.7%); type: ADME, organism-based; conditions: in vivo, po
[26] = tested on: Mus musculus; assay: Effect on spleen helper T cell population in mouse B16/F10 cells implanted […] mouse assessed as CD3-positive cell population at 50 mg/kg, ig administered once daily via gavage for 15 days measured 24 hrs post-last dose by immunostaining based flow cytometry (reference value: 14.7%); type: organism-based; conditions: in vivo, po
[27] = tested on: Mus musculus; assay: (§3) Effect on activated cytotoxic T cell population in mouse B16/F10 cells implanted […] mouse assessed as CD3-positive cell population in spleen at 50 mg/kg, ig administered once daily via gavage for 15 days measured 24 hrs post-last dose by immunostaining based flow cytometry (reference value: 27.5 %); type: organism-based; conditions: in vivo, po
[28] = tested on: Mus musculus; assay: Effect on spleen helper T cell population in mouse B16/F10 cells implanted […] mouse assessed as CD4-positive cell population at 25 mg/kg, ig administered once daily via gavage for 15 days measured 24 hrs post-last dose by immunostaining based flow cytometry (reference value: 1.47 %); type: ADME, organism-based; conditions: in vivo, po
[29] = tested on: Mus musculus; assay: Effect on spleen helper T cell population in mouse B16/F10 cells implanted […] mouse assessed as spleen cell population at 25 mg/kg, ig administered once daily via gavage for 15 days measured 24 hrs post-last dose by immunostaining based flow cytometry (reference value: 56.1 %); type: ADME, organism-based; conditions: in vivo, po
[30] = tested on: Mus musculus; assay: as §2, with “25” for “100”; type: organism-based; conditions: in vivo, po
[31] = tested on: Mus musculus; assay: as §3, with “25” for “50”; type: organism-based; conditions: in vivo, po
[32] = AUC (0 to infinity) in Sprague-Dawley rat at 10 mg/kg, po by LC-MS/MS analysis; type: ADME, organism-based; set-up: dose 10 mg/kg, time infinity, route oral; conditions: in vivo

T1 sequence (Q15116 whole entry): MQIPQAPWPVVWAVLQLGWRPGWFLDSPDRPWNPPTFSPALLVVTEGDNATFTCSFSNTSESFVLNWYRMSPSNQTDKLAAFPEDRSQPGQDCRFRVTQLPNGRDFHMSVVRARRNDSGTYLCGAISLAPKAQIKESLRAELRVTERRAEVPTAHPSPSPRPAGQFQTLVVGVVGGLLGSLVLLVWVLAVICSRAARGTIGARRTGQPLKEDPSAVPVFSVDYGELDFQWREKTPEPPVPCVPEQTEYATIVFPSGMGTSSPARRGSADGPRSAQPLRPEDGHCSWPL
T1 sequence (Q9NZQ7 whole entry): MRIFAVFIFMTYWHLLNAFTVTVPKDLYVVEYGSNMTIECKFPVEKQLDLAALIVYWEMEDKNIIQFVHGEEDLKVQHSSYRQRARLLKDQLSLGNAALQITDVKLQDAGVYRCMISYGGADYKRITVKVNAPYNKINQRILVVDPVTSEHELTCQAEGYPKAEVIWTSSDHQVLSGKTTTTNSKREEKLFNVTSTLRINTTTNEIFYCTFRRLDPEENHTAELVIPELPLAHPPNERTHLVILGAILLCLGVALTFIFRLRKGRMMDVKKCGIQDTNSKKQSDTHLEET

clearance [3]: 15 mL/min/kg
Vd [4]: 2.1 L/kg
CL/F [5]: 385 mL/min/kg
Vdss [6]: 290.3 L/kg
Activity [22]: 1.78%
Activity [25]: 28.2%
Activity [26]: 16.7%
Activity [28]: 1.94%
Activity [29]: 59.9%
AUC(0-inf) [32]: 520 ng·h/mL
SMILES: Cc1c(COc2cc(OCc3cccc(C#N)c3)c(CNC(C)(C)C(=O)O)cc2Cl)cccc1-c1ccccc1
IC50 [1]: 12.5 nM
IC50 [2]: 12.5 nM
IC50 [7]: > 10000 nM
IC50 [8]: > 10000 nM
IC50 [9]: > 10000 nM
inhibition in vivo at 25 mg/kg [10]: 51.1%
Activity [11]: Non-Toxic
IC50 [12]: > 1000 nM
Activity [13]: 1.3%
Activity [14]: 28%
Activity [15]: 13.5%
Activity [16]: 2.27%
Activity [17]: 68.4%
Activity [18]: 14.8%
Activity [19]: 64.9%
Activity [20]: 14.5%
Activity [21]: 15%
Activity [23]: 0.44%
Activity [24]: 62.6%
Activity [27]: 28.8%
Activity [30]: 0.452%
Activity [31]: 24.3%
